The results in this text go back to publication PMC8305076, “Comprehensive Evaluation of Biological Effects of Pentathiepins on Various Human Cancer Cell Lines and Insights into Their Mode of Action” (International Journal of Molecular Sciences, 2021).

SMILES strings stand for the structures.

Holding throughout (format): cell-based, human
The test system of one assay is HAP-1.KO.GPx1. As to the kind of experiment: annexin V-FITC/PI apoptosis assay. The note with it: for early apoptotic cells: pentathiepins IC90, doxorubicin 0.5 µM, 24 h. On the procedure: (§1) As reported in our earlier publication, a representative pentathiepin was capable of inducing apoptosis in cancer cell lines. Here, we tested compounds 1–6 for their ability to trigger this particular modality of cell death in a subset of four cell lines: HAP-1, HAP-1.KO.GPx1, A2780, and Siso. A flow cytometric assay was performed, allowing us to discriminate between viable, early, and late apoptotic cells (representative dot plots can be found in Figure S47). FITC-labeled annexin V was used to assess the externalization of phosphatidyl serine as a hallmark of early apoptosis induction. The addition of propidium iodide (PI) enabled the detection of late apoptotic cells as it only permeates porous cell membranes and exerts fluorescence once bound to double-stranded DNA.
(§2) The annexin V-FITC/PI assay, which discriminates between viable, early, and late apoptotic cells within a sample population, was performed according to the manufacturer’s instructions (Miltenyi Biotec, Teterow, Germany). Briefly, 125,000 cells were seeded in 2 mL per well of a 6-well plate, allowed to adhere overnight, and subsequently treated with the respective pentathiepin (IC90, see Table S4) diluted in 3 mL of medium. After incubation periods of 6, 24, or 48 h, the cells were harvested, washed with the provided binding buffer, and stained with the annexin V-FITC reagent for 20 min at room temperature (RT) in the dark. After another washing step, the pellet was resuspended, and PI was added immediately before flow cytometric measurement at λEx/Em = 488/525 ± 50 nm for FITC and λEx/Em = 488/655–730 nm for PI with the MACSquant Analyzer 10 (Miltenyi Biotec, Teterow, Germany).

The test system of assay [1] is Siso. As to the kind of experiment: alkaline Comet assay. The note with it: 25 µM pentathiepin or 20 µM H2O2, 15 min, 0 °C. The text has this: Next, the potential of the pentathiepins 1–6 to damage nuclear DNA was investigated in the cell lines HAP-1, HAP-1.KO.GPx1, and Siso, with different expression levels of GPx1 and CAT (see Figure 7), by Comet Assay (Figure 12) with representative images in the Supplementary Materials (Figure S48).
With this assay, the intensity of DNA damage can be assessed on the level of a single cell, in case of the alkaline version detecting both single and double strand breaks as well as alkali-labile sites. The method presented here is an adaptation of the protocol published by Olive and Banath and based on the distinct electrophoretic mobility of damaged and intact genomic DNA. The latter has a low mobility; does thus not migrate in the electric field; and remains in a nucleoid shape after lysis, referred to as the comet head. In contrast, when strand breaks are created, free charged ends emerge and increase the electrophoretic mobility, prompting DNA segments to drift away from the comet head, thereby forming the so-called comet tail. As descriptor of still intact genomic DNA, the percentage of DNA in the comet head was selected. Per condition, 50,000 cells of either Siso, HAP-1, or HAP-1.KO.GPx1 were diluted in 1 mL of PBS and subsequently treated with either a 1% DMF aqueous solution as negative control, 20 µM of H2O2 as positive control, or 25 µM of pentathiepin for 15 min on ice to impair intracellular DNA repair mechanisms. Afterwards, 400 µL of the cell suspension was blended with 1.2 mL of a 1% low melting point agarose solution (40 °C) and smoothly distributed on agarose-precoated glass slides. Polymerization was finished after 3 min at RT, and the slides were horizontally submerged in alkaline lysis buffer (1.2 M NaCl, 0.1% N-lauryl-sarcosinate, 0.1 M Na-EDTA, 0.26 M NaOH) before storing them at 4 °C overnight. The slides were then rinsed three times in rinse/electrophoresis buffer (0.002 M Na-EDTA, 0.03 M NaOH) before electrophoretic separation was performed for 25 min at 0.6 V/cm. A neutralization step by adding distilled water was followed by staining the slides with 250 µL of an aqueous 10 µg/mL PI solution for 20 min. For visualization and image capturing, a DMi8 fluorescent microscope and LASX software (Leica Microsystems, Wetzlar, Germany) were used, and the comets scored with the help of CometScore2.0 (rexhoover.com). Per condition and replicate, at least 100 comets were analyzed to calculate a mean level of damage.

The test system of the next assay is HAP-1. The assay can be described thus: annexin V-FITC/PI apoptosis assay. The settings on record: IC90, 24 h. On the procedure: as §1, §2
For assay [2], the system named is Siso. The assay can be described thus: annexin V-FITC/PI apoptosis assay. The note with it: IC90, 24 h. On the procedure: as §1, §2
For the next assay, the system named is PATU-8902. The assay can be described thus: cell cycle analysis (PI staining). The settings on record: IC90, 24 and 48 h (Figure 19b). Here is the method: (§3) The potent cytotoxicity and the potential to inhibit the proliferation of cancer cells accompanied by DNA damage effects raised the question as to whether cell cycle progression might be affected as a result of treatment with pentathiepins.
(§4) Cells were harvested by trypsinization, collected in 1.5 mL tubes, and washed twice with PBS by centrifuging for 5 min at 500× g and discarding the supernatant after every step. For fixation, 500 µL of ice-cold ethanol (70%) was added dropwise under vortexing with a subsequent incubation on ice for 30 min. Then, the cells were centrifuged for 10 min at 4000 rpm and 4 °C, the supernatant was removed, and the cells were resuspended in 500 µL of PBS containing 25 µg/mL of PI and 100 µg/mL of RNase. The staining solution was incubated for 30 min, and the cell suspension was measured at λEx/Em = 488/655–730 nm using a MACSquant Analyzer 10 (Miltenyi Biotec, Teterow, Germany).

Another assay deals with YAPC. As to the kind of experiment: cell cycle analysis (PI staining). The settings on record: IC90, 24 and 48 h (Figure 19c). Here is the method: as §3, §4
Another assay concerns A2780. As to the kind of experiment: cell cycle analysis (PI staining). The settings on record: IC90, 48 h. Here is the method:
as §3, §4

For `CCOc1c2c(c3ccc(C(=O)N4CCN(C(=O)c5ccc(F)cc5)CC4)cn13)SSSSS2` [Compound 5, (6-Ethoxy-[1,2,3,4,5]pentathiepino[6,7-a]indolizin-9-yl)(4-(4-fluorobenzoyl)piperazinyl)methanone], in the assay on HAP-1.KO.GPx1, the early apoptotic cells worked out at 15%.
Consider `CCOc1c2c(c3ccc(C(=O)N4CCCCC4)cn13)SSSSS2` [Compound 2, (6-Ethoxy-[1,2,3,4,5]pentathiepino[6,7-a]indolizin-9-yl)(piperidinyl)methanone], for which, in the assay on Siso [1], the “intact genomic DNA (Comet head)” value turned out to be 30%.
`CCOc1c2c(c3ccc(C(=O)N4CCOCC4)cn13)SSSSS2` [Compound 3, (6-Ethoxy-[1,2,3,4,5]pentathiepino[6,7-a]indolizin-9-yl)(morpholino)methanone]: the late apoptotic cells entry is “up to 12%” in the assay on HAP-1; “about 20%” in the assay with Siso [2]; 6% with HAP-1.KO.GPx1 (IC90, 24 h). Besides, the figures for the early apoptotic cells entry with Siso [2] and in the assay on HAP-1.KO.GPx1 were “about 20%” and 34%, respectively. In addition, in the assay on PATU-8902, the “increase of S-phase cells” value was “up to 14%”.
Turning to `CCOc1c2c(c3ccc(C(=O)N(CC)CC)cn13)SSSSS2` [Compound 4, 6-Ethoxy-N,N’-diethyl-[1,2,3,4,5]pentathiepino[6,7-a]indolizine-9-carboxamide], the “increase of S-phase cells” value in the assay with PATU-8902 is recorded as “up to 14%”.
Turning to `CCOc1c2c(c3cnc4[nH]c(-c5ccc(OC)cc5)cc4n13)SSSSS2` [Compound 1, 11-Ethoxy-2-(4-methoxyphenyl)-3H-[1,2,3,4,5]pentathiepino[6′,7′:3,4]pyrrolo[1,2-a]pyrrolo[2,3-e]pyrazine], the “increase of G0/G1-phase cells” value in the assay with YAPC is “up to 18%”.
In the case of `CCOc1c2c(c3ccc(C(=O)N4CCN(S(=O)(=O)c5ccc(C)cc5)CC4)cn13)SSSSS2` [Compound 6, (6-Ethoxy-[1,2,3,4,5]pentathiepino[6,7-a]indolizin-9-yl)(4-tosylpiperazinyl)methanone], the “relative amount of sub G1-phase cells” value with A2780 is 30%. Further, the “increase of G0/G1-phase cells” value in the assay on YAPC is listed as “up to 18%”.
